ChEMBL document CHEMBL4725351, “Cyclic Derivative of Host-Defense Peptide IDR-1018 Improves Proteolytic Stability, Suppresses Inflammation, and Enhances In Vivo Activity” (J Med Chem, 2020)
Calls of active or inactive are those of the source. The rule behind the calls is not given here.

Tests used:
Staphylococcus aureus [1] = assay: Antibacterial activity against methicillin-resistant Staphylococcus aureus SAP0017 measured after overnight incubation by microtitre plate based spectrophotometric method; assay type: functional
Staphylococcus aureus [2] = assay: Antibacterial activity against methicillin-resistant Staphylococcus aureus USA300 LAC measured after overnight incubation by microtitre plate based spectrophotometric method; assay type: functional
Pseudomonas aeruginosa [3] = assay: Antibacterial activity against Pseudomonas aeruginosa PA14 measured after overnight incubation by microtitre plate based spectrophotometric method; assay type: functional
Pseudomonas aeruginosa [4] = assay: Antibacterial activity against Pseudomonas aeruginosa PAO1 measured after overnight incubation by microtitre plate based spectrophotometric method; assay type: functional
Escherichia coli [5] = assay: Antibacterial activity against Escherichia coli ATTC 489 measured after overnight incubation by microtitre plate based spectrophotometric method; assay type: functional
Acinetobacter baumannii [6] = assay: Antibacterial activity against Acinetobacter baumannii 5015 measured after overnight incubation by microtitre plate based spectrophotometric method; assay type: functional
Acinetobacter baumannii [7] = assay: Antibacterial activity against Acinetobacter baumannii 17918 measured after overnight incubation by microtitre plate based spectrophotometric method; assay type: functional
Klebsiella pneumoniae [8] = assay: Antibacterial activity against Klebsiella pneumoniae ATTC 13883 measured after overnight incubation by microtitre plate based spectrophotometric method; assay type: functional
Staphylococcus aureus [9] = assay: Antibiofilm activity against methicillin-resistant Staphylococcus aureus USA300 LAC incubated for 24 hrs under shaking condition by turbidometric method; assay type: functional
Pseudomonas aeruginosa [10] = assay: Antibiofilm activity against Pseudomonas aeruginosa PA14 incubated for 24 hrs under shaking condition by turbidometric method; assay type: functional
Pseudomonas aeruginosa [11] = assay: Antibiofilm activity against Pseudomonas aeruginosa PAO1 incubated for 24 hrs under shaking condition by turbidometric method; assay type: functional
Escherichia coli [12] = assay: Antibiofilm activity against Escherichia coli ATTC 489 incubated for 24 hrs under shaking condition by turbidometric method; assay type: functional
Acinetobacter baumannii [13] = assay: Antibiofilm activity against Acinetobacter baumannii 5015 incubated for 24 hrs under shaking condition by turbidometric method; assay type: functional
Acinetobacter baumannii [14] = assay: Antibiofilm activity against Acinetobacter baumannii 17918 incubated for 24 hrs under shaking condition by turbidometric method; assay type: functional
Klebsiella pneumoniae [15] = assay: Antibiofilm activity against Klebsiella pneumoniae ATTC 13883 incubated for 24 hrs under shaking condition by turbidometric method; assay type: functional
Pseudomonas aeruginosa [16] = assay: Antibiofilm activity against 24 hrs preformed Pseudomonas aeruginosa PA14 biofilm assessed as reduction in biofilm viability at 7.2 to 30.3 uM by TTC assay relative to control; assay type: functional; settings: dose microM 7.2-30.3
Pseudomonas aeruginosa [17] = assay: Antibiofilm activity against 24 hrs preformed Pseudomonas aeruginosa PAO1 biofilm assessed as reduction in biofilm viability at 7.2 to 30.3 uM by TTC assay relative to control; assay type: functional; settings: dose microM 7.2-30.3
Escherichia coli [18] = assay: Antibiofilm activity against 24 hrs preformed Escherichia coli ATTC 489 biofilm assessed as reduction in biofilm viability at 7.2 to 30.3 uM by TTC assay relative to control; assay type: functional; settings: dose microM 7.2-30.3
Acinetobacter baumannii [19] = assay: Antibiofilm activity against 24 hrs preformed Acinetobacter baumannii 5015 biofilm assessed as reduction in biofilm viability at 7.2 to 30.3 uM by TTC assay relative to control; assay type: functional; settings: dose microM 7.2-30.3
Acinetobacter baumannii [20] = assay: Antibiofilm activity against 24 hrs preformed Acinetobacter baumannii 17918 biofilm assessed as reduction in biofilm viability at 7.2 to 30.3 uM by TTC assay relative to control; assay type: functional; settings: dose microM 7.2-30.3
Klebsiella pneumoniae [21] = assay: Antibiofilm activity against 24 hrs preformed Klebsiella pneumoniae ATTC 13883 biofilm assessed as reduction in biofilm viability at 7.2 to 30.3 uM by TTC assay relative to control; assay type: functional; settings: dose microM 7.2-30.3
Trypsin [22] = biological target: T1, Trypsin (Homo sapiens, UniProt P07477+P07478+P35030); assay: Stability of the compound in pH 8.2 ammonium bicarbonate buffer assessed as trypsin (unknown origin)-mediated compound cleavage at carboxy-terminal side of arginine at 20 ug/ml measured within 30 mins by RP-HPLC analysis; assay type: ADME, protein assay; settings: pH 8.2, 0.5 h, at 20 µg/mL
Trypsin [23] = biological target: T1, Trypsin; assay: Stability of the compound in pH 8.2 ammonium bicarbonate buffer assessed as trypsin (unknown origin)-ILPWK formation at 20 ug/ml measured within 30 mins by MALDI-TOF analysis; assay type: ADME, protein assay; settings: pH 8.2, 0.5 h, dose 20 µg/ml
Trypsin [24] = biological target: T1, Trypsin; assay: Stability of the compound in pH 8.2 ammonium bicarbonate buffer assessed as trypsin (unknown origin)-mediated drug degradation at 20 ug/ml measured up to 120 mins by MALDI-TOF analysis; assay type: ADME, protein assay; settings: pH 8.2, 2 h, at 20 µg/mL
Trypsin [25] = biological target: T1, Trypsin; assay: Stability of the compound in pH 8.2 ammonium bicarbonate buffer assessed as trypsin (unknown origin)-mediated drug degradation at 20 ug/ml measured up to 120 mins by RP-HPLC analysis; assay type: ADME, protein assay; settings: pH 8.2, 2 h, at 20 µg/mL
Trypsin [26] = biological target: T1, Trypsin; assay: Stability of the compound in pH 8.2 ammonium bicarbonate buffer assessed as trypsin (unknown origin)-mediated drug degradation at 20 ug/ml measured after 120 mins by RP-HPLC analysis; assay type: ADME, protein assay; settings: buffer, pH 8.2, 2 h, at 20 µg/mL
[27] = Aggregation property of the compound in water at 1 mg/ml by turbidimetric method; assay type: physicochemical; settings: buffer
[28] = Aggregation property of the compound in saline at 1 mg/ml by turbidimetric method; assay type: physicochemical; settings: buffer
[29] = Aggregation property of the compound in 5% dextrose at 1 mg/ml by turbidimetric method; assay type: physicochemical
[30] = Aggregation property of the compound in RPMI medium with 1% FBS at 1 mg/ml by turbidimetric method; assay type: physicochemical
[31] = Aggregation property of the compound in sodium citrate solution at 10 mM by turbidimetric method; assay type: physicochemical; settings: 10000 µM
[32] = Aggregation property of the compound in sodium phosphate solution at 10 mM by turbidimetric method; assay type: physicochemical; settings: 10000 µM
[33] = Aggregation property of the compound in sodium nitrate solution at 10 mM by turbidimetric method; assay type: physicochemical; settings: 10000 µM
[34] = Aggregation of the compound in human PBMC assessed as amorphous morphology at 50 ug/ml measured after 4 hrs by microscopic analysis; assay type: ADME, tissue-based; settings: dose 50 µg/ml
[35] = Cytotoxicity against human PBMC assessed as reduction in cell viability at 100 ug/ml measured after 24 hrs by LDH assay; assay type: tissue-based; settings: dose 100 µg/ml
PBMC [36] = assay: Immunomodulatory activity in human PBMC assessed as increase in MCP1 production at 25 ug/ml measured after overnight incubation by ELISA; assay type: functional, tissue-based; settings: dose 25.0 µg/ml
PBMC [37] = assay: Immunomodulatory activity in human PBMC assessed as change in TNFalpha production at 25 ug/ml measured after overnight incubation by ELISA; assay type: functional, tissue-based; settings: dose 25.0 µg/ml
PBMC [38] = assay: Immunomodulatory activity in human PBMC assessed as increase in IL-1RA production at 25 ug/ml measured after overnight incubation by ELISA; assay type: functional, tissue-based; settings: dose 25.0 µg/ml
PBMC [39] = assay: Immunomodulatory activity in human PBMC assessed as reduction in LPS-induced TNFalpha production at 25 ug/ml measured after overnight incubation by ELISA; assay type: functional, tissue-based; settings: dose 25.0 µg/ml
[40] = Immunomodulatory activity in human PBMC assessed as increase in LPS-induced MCP1 production at 25 ug/ml measured after overnight incubation by ELISA; assay type: functional; settings: dose 25 µg/ml
PBMC [41] = assay: Immunomodulatory activity in human PBMC assessed as reduction in LPS-induced IL1beta production at 25 ug/ml measured after overnight incubation by ELISA; assay type: functional, tissue-based; settings: dose 25.0 µg/ml
[42] = Toxicity in CD1 mouse assessed as precipitation under the skin at 10 mg/kg, sc measured after 16 hrs; assay type: organism-based; settings: in vivo
Staphylococcus aureus [43] = assay: Antibacterial activity against Staphylococcus aureus USA300 LAC infected in CD1 mouse assessed as dermonecrosis area at 7.5 mg/kg, sc administered at infection site measured after 3 days by caliper method (Rvb > 75 mm2); assay type: functional; settings: time 3 day

H-VRLIVAVRIWRR-NH2
MIC (Staphylococcus aureus [1]): 32.5 µM
MIC (Staphylococcus aureus [2]): 32.5 µM
MIC (Pseudomonas aeruginosa [3]): 32.5 µM
MIC (Pseudomonas aeruginosa [4]): 32.5 µM
MIC (Escherichia coli [5]): 65.8 µM
MIC (Acinetobacter baumannii [6]): 32.5 µM
MIC (Acinetobacter baumannii [7]): 32.5 µM
MIC (Klebsiella pneumoniae [8]): 16.2 µM
MBEC (Staphylococcus aureus [9]): 7.8 µM
MBEC (Pseudomonas aeruginosa [10]): 16.2 µM
MBEC (Pseudomonas aeruginosa [11]): 16.2 µM
MBEC (Escherichia coli [12]): 10.4 µM
MBEC (Acinetobacter baumannii [13]): 16.2 µM
MBEC (Acinetobacter baumannii [14]): 16.2 µM
MBEC (Klebsiella pneumoniae [15]): 10.4 µM
Activity (Pseudomonas aeruginosa [16]): 70%
Activity (Pseudomonas aeruginosa [17]): 70%
Activity (Escherichia coli [18]): 70%
Activity (Acinetobacter baumannii [19]): 70%
Activity (Acinetobacter baumannii [20]): 70%
Activity (Klebsiella pneumoniae [21]): 70%
Stabilty (Trypsin [22]): Unstable
Drug metabolism (Trypsin [23]): Metabolite_Detected
Stabilty (Trypsin [24]): Stable
Stabilty (Trypsin [25]): Stable
Stabilty (Trypsin [26]): Unstable
Activity [27]: Not Active
Activity [28]: Not Active
Activity [29]: Not Active
Activity [30]: Active
Activity [31]: Active
Activity [32]: Active
Activity [33]: Active
Activity [34]: Active
Activity [35]: Toxic
Activity (PBMC [36]): Active
Activity (PBMC [37]): inactive
Activity (PBMC [38]): Active
Activity (PBMC [39]): Active
Activity [40]: 35%
Activity (PBMC [41]): Active
Activity [42]: Toxic
Activity (Staphylococcus aureus [43]): 30 mm2
